# B1: SHP2 D61N: human full-length SHP2 (residues 1–526; C459E, D61N) (protein, UniProt Q06124 2-593, looked up, variant C459E D61N)
# Tyrosine-protein phosphatase …: TSRRWFHPNITGVEAENLLLTRGVDGSFLARPSKSNPGDFTLSVRRNGAVTHIKIQNTGNYYDLYGGEKFATLAELVQYYMEHHGQLKEKNGDVIELKYPLNCADPTSERWFHGHLSGKEAEKLLTEKGKHGSFLVRESQSHPGDFVLSVRTGDDKGESNDGKSKVTHVMIRCQELKYDVGGGERFDSLTDLVEHYKKNPMVETLGTVLQLKQPLNTTRINAAEIESRVRELSKLAETTDKVKQGFWEEFETLQQQECKLLYSRKEGQRQENKNKNRYKNILPFDHTRVVLHDGDPNEPVSDYINANIIMPEFETKCNNSKPKKSYIATQGCLQNTVNDFWRMVFQENSRVIVMTTKEVERGKSKCVKYWPDEYALKEYGVMRVRNVKESAAHDYTLRELKLSKVGQGNTERTVWQYHFRTWPDHGVPSDPGGVLDFLEEVHHKQESIMDAGPVVVHESAGIGRTGTFIVIDILIDIIREKGVDCDIDVPKTIQMVRSQRSGMVQTEAQYRFIYMAVQHYIETLQRRIEEEQKSKRKGHEYTNIKYSLADQTSGDQSPLPPCTPTPPCAEMREDSARVYENVGLMQQQKSFR
# What was measured:
# c-Src kinase domain [1] = target: T1, c-Src kinase domain (Homo sapiens, UniProt P12931); test: RP-HPLC assay to measure peptide phosphorylation kinetics; type: biochemical; settings: purified peptide substrate
# c-Src kinase domain [2] = target: T1, c-Src kinase domain; test: pTyr-Var library bacterial peptide display kinase screen (enrichment scores); type: biochemical; settings: sheet "Src"; effect of the variant peptide relative to its reference peptide in the pTyr-Var library screen;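 also: log2 fold change in enrichment of variant over reference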
# FGFR1 kinase domain = test: LC-MS assay of intact SHP2 protein phosphorylation; type: biochemical, human; settings: SHP2 10 μM, kinase 1 μM, 1 hr, 37 °C, 2 to 3 measurements
# Description: (§1) The same protocol used to express and purify SH2 domains, excluding co-expression of BirA and addition of biotin, was applied to the expression and purification of the SHP2 variants.
# (§2) To pre-activate the kinases, 1 μM of each purified kinase domain was preincubated at 37 °C for 30 min in the same buffer conditions used in the kinase domain peptide display screen, with 1 mM ATP. The reaction of the kinase with SHP2 was initiated with the addition of 10 μM SHP2, and the mixture was incubated in 37 °C for 1 hr. To terminate the reaction, the mixture was quenched with 200 mM EDTA. The reaction mixture was diluted 3:2 in water and injected onto a BEH C8 column (Waters) on a UPLC-MS system (Xevo QToF, Waters). Reverse-phase liquid chromatography was carried out at 0.3 mL/min with solvents A (H2O, 0.1% (v/v) formic acid) and B (acetonitrile, 0.1% (v/v) formic acid). Proteins were eluted over a gradient of 5–95% B for 8.5 min. The protein peak on the chromatogram was deconvoluted using the MaxEnt1 algorithm from 32,000–65,000 Da with a resolution of 1 Da/channel over 30 iterations. Peaks were chosen according to the theoretical MW of the protein within a range of 5 Da, and integrated for the signal intensity.
# Fyn kinase domain = test: LC-MS assay of intact SHP2 protein phosphorylation; type: biochemical, human; settings: SHP2 10 μM, kinase 1 μM, 1 hr, 37 °C, 2 to 3 measurements
# Description: as §1, §2
Molecule,Phosphorylation Rate (c-Src kinase domain [1]),Screen (c-Src kinase domain [2]),phosphorylation of intact SHP2 by FGFR1 (FGFR1 kinase domain),phosphorylation of intact SHP2 by Fyn (Fyn kinase domain)
"Ac-WDLPEYSFKDP-NH2 [ITGA3_Y237_S235P_YF, pTyr-Var library variant phosphosite peptide]",0.153 s⁻¹,-1.08,,
B1,,,dramatically enhanced phosphorylation,dramatically enhanced phosphorylation
